# How the values were obtained:
# Format in all cases: cell-based
# SLC7A11 = target: T1, SLC7A11 (Homo sapiens, UniProt Q9UPY5); experiment: total intracellular selenium levels after selenite supplementation; settings: knockout of SLC7A11
# T1 construct: endogenous in cells
# T1 sequence (Q9UPY5 1-501): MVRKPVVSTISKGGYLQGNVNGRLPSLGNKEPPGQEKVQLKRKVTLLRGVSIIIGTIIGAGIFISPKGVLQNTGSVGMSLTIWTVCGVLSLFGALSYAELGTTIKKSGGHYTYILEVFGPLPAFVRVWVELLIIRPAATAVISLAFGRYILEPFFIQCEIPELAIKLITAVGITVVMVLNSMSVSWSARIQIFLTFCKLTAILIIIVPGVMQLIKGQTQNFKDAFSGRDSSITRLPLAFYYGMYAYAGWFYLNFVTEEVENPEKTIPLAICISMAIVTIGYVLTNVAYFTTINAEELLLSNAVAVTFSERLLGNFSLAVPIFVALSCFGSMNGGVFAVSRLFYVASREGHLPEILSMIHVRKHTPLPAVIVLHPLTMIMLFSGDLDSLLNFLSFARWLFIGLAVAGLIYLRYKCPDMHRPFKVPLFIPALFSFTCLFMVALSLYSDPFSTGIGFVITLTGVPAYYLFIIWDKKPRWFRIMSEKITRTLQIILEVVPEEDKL
# T1 sequence (P08195 1-529 partner): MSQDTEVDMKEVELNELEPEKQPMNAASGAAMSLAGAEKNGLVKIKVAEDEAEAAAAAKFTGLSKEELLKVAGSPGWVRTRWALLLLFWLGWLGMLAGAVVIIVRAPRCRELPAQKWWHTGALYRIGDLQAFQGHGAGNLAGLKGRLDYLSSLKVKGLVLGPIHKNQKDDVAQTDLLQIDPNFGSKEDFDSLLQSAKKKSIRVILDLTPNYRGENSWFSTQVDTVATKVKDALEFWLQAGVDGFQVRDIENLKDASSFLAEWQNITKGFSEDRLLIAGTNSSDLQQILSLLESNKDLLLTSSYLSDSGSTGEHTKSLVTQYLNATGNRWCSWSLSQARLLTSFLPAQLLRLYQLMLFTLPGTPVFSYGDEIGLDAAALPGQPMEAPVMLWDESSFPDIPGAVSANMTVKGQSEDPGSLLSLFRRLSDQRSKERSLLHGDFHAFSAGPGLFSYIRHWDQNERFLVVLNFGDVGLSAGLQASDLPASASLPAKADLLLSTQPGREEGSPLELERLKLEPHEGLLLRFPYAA
# Text: SLC7A11 was 5.5-fold enriched in SEPHS2-sensitive cell lines (FIG. 4C).
# GPX4 and SEPHS2 = experiment: selenoprotein expression after selenite supplementation; settings: supplementation with selenite to media
# U251 cells = experiment: CRISPR/Cas9 screen of candidate selenium transporters: toxicity of 12 μM selenite; settings: both guides against SLC7A11, U251 cells
# Procedure: We compared the cells that are sensitive to SEPHS2 KO vs those that are not sensitive to identify key drivers of selenide production. We examined these lines for susceptibility to high, toxic doses of selenite as it is an abundant and bioavailable form of selenium. We observed a strong correlation between susceptibility to high-dose selenite and to SEPHS2 KO (FIG. 4A). […] Two guides per candidate transporter were knocked out in U251 cells and effects on the toxicity of 12 μM selenite were examined.
# U251 GBM cell line = experiment: selenite treatment in conjunction with SEPHS2 KO (growth); settings: 12 uM selenite; growth normalized to SEPHS2 KO cells
# Procedure: FIGS. 2A-D provide evidence that SEPHS2 plays a detoxifying role in U251 GBM cell line. (A) Knockdown of either SEPHS2 or SEPSECS can block selenoprotein expression. (B) However, only SEPHS2 KO has significant toxicity. (C) Model for ‘pushing’ toxicity in which if SEPHS2 plays a detoxifying role, its KO should synergize with increased selenited input. (D) Synergy is indeed seen with 12 uM selenite treatment in conjunction with SEPHS2 KO. Growth is normalized to the already lower growth rate of the SEPHS2 KO cells, thus the bars in asterisks indicate (statistically significant) synergy.
# We had classified SEPHS2 as a putative detoxifier as its substrate, selenide, is the most toxic form of selenium^12. The notion of SEPHS2 as a detoxifier has not previously been explored, and SEPHS2 is simply known for its enzymatic role (which cannot be replaced by its isoform, SEPHS1^13) as an intermediate step in producing selenocysteine for selenocysteinyl-tRNA production. The selenocysteine producing pathway is a simple and linear pathway starting from dietary […]—or […] or other inorganic forms which can be converted to selenite, selenite being the most common form^14,15. Selenite is imported and converted through in an unclear manner to form selenide, which is then metabolized by SEPHS2 to form selenophosphate, accompanied by ATP hydrolysis. […]
smiles,measurement,setting,value
O=[Se](O)O [selenite],total intracellular selenium due to supplemented selenite,SLC7A11,prevented any increase
same,expression of selenoproteins GPX4 and SEPHS2,GPX4 and SEPHS2,increased expression
same,toxicity of high-dose selenite after knockout of SLC7A11,U251 cells,complete rescue
same,growth with selenite in conjunction with SEPHS2 KO,U251 GBM cell line,Synergy

# — patent publication US20200096789A1, “Optical Aid” (priority 2017, published 2020)
